Measured values reported in patent US8450333B2, “Molecules for regulating cell death” (The Regents of The University of California, priority 2003, dated 2013).

Tests used:
[1] = tested on: actin cytoskeleton and peripheral ER network; experiment: Actin cytoskeleton and peripheral ER network in yeast; format: cell-based; settings: 100 μM, versus DMSO-treated cells, n=50
Excerpt: These structures are routinely examined in yeast mitochondrial morphology mutants as a test for the specificity of the mitochondrial phenotype.

dynamin-1 = target: T1, dynamin-1 (Homo sapiens, UniProt Q05193); experiment: Assembly-stimulated GTP hydrolysis by dynamin-1; format: biochemical
T1 sequence (Q05193 1-864): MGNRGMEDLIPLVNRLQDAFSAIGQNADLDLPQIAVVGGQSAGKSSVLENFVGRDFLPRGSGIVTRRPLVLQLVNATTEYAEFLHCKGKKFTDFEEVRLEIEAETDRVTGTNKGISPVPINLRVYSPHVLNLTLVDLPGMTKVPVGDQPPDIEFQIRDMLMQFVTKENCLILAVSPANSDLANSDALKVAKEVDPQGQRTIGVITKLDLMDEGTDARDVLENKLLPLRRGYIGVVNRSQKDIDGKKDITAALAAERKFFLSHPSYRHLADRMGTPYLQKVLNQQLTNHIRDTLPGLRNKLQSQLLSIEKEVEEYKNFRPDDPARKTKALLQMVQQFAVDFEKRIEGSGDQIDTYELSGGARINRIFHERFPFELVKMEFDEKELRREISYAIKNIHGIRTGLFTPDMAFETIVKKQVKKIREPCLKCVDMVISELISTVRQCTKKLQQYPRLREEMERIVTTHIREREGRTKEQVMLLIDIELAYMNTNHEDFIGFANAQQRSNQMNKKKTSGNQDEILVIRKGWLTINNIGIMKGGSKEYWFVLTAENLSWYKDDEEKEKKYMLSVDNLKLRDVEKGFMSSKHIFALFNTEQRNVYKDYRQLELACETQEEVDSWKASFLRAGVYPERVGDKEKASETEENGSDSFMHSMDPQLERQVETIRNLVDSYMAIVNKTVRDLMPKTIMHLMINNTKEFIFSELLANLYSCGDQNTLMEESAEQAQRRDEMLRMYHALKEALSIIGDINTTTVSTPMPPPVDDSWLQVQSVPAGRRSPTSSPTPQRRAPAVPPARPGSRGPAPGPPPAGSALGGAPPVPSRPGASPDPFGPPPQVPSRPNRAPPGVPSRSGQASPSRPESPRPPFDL
Excerpt: Our observations raise the question of whether mfisi-1 is simply a general inhibitor of GTPase super family members and/or DRPs. It seems unlikely that mfisi-1 is an inhibitor of all GTPase superfamily members, given that it has no effect on GTPase-dependent activities, such as maintenance of the actin cytoskeleton. To more directly address this question, however, we examined the effects of mfisi-1 on the DRP, dynamin-1, which functions during endocytosis in the scission of clathrin coated pits from the plasma membrane. […] We will continue to explore the specificity of mfisi-1 for DRPs by determining its effects on the mammalian Dnm1 ortholog, Drp1. […] Taken together, our data are consistent with mfisi-1 functioning in vivo as a selective inhibitor of the dynamin-related GTPase, Dnm1, to block mitochondrial fission.

wild type yeast cells = experiment: Mitochondrial morphology in yeast (secondary screen, mitochondrial targeted GFP); format: cell-based, S. cerevisiae
Excerpt: Secondary screens: Compounds identified in the primary growth assay-based screens outlined above are screened secondarily by examining their effects on mitochondrial morphology. We use the steady state structure of mitochondria as an indicator of the relative rates of mitochondrial fission and fusion in cells. […] Mitochondria are visualized using a mitochondrial targeted GFP that is efficiently targeted to both wild type and respiratory deficient mitochondria (Tieu et al., 2000 The Journal of Cell Biology 151, 353-365.).
All compounds identified in the primary growth assay-based screens outlined above were screened secondarily by examining their effects on mitochondrial morphology in yeast. From previous work, we know that the steady state structure of mitochondria is an indicator of the relative rates of mitochondrial fission and fusion in cells (FIG. 7). Specifically, net-like structures indicate a block in fission, and fragmented mitochondrial structures indicate a block in fusion. […] In this secondary assay, small molecules were judged to be a hit if they produced a mutant phenotype in greater than 5% of the cell population.
To determine what structural features are important for the effects of mfisi-1 on mitochondrial fission, we identified structurally related molecules using a chemoinformatics approach. We utilized web-based ChemNavigator to search available public and commercial compound databases for small molecules that uniquely represented key structural features of mfisi-1. We tested a total of 15 small molecules related to mfisi-1 for their effects on mitochondrial morphology in yeast, each at a concentration of 50 μM (Table 3).

Δdnm1 cells = experiment: Mitochondrial morphology in Δdnm1 yeast cells; format: cell-based
Excerpt: (§1) Formally, the small molecules we identified could produce their phenotypes by either inhibiting or activating fission or fusion. To distinguish the exact effects of mfisi-1 and other small molecules identified in our screens on mitochondrial dynamics, we have directly measured the rates of fission and fusion events after drug addition in yeast cells by examining the behavior of mitochondria using time-lapse fluorescence microscopy. […] In contrast, in DMSO treated control cells, both fission and fusion events were easily detected in the same time frame.
To determine the target of mfisi-2, we will characterize this small molecule using the assays for fission. We will also determine whether mfisi-2 affects mitochondrial morphology in mammalian cells. If this is the case, then mfisi-2 might inhibit mitochondrial fission by affecting conserved fission-related activities. […] If mfisi-2 produces mitochondrial net-like structures in mammalian cells, we will determine its effects on apoptosis as described previously. Prioritization and characterization of potential mitochondrial fusion inhibitors In our screens for mitochondrial fusion inhibitors, we identified a total of 37 compounds. […] To determine whether fragmentation in drug-treated cells is strictly dependent upon Dnm1-dependent fission, we determined the effects of these small molecules on mitochondrial morphology in Δdnm1 cells. […]

yeast cells = experiment: Time-lapse fluorescence microscopy of mitochondrial fission and fusion events in yeast; format: cell-based, S. cerevisiae; settings: time-lapse after drug addition
Excerpt: To distinguish whether compounds specifically affect mitochondrial fission or fusion, we directly measure the rates of these events by examining the behavior of mitochondria using time-lapse fluorescence microscopy after drug addition. We routinely perform this type of experiment using a DeltaVision deconvolution microscope.
as §1

[2] = Structure Function Analysis of A1, A2, and A3, fraction of yeast cells
[3] = fraction of wild type yeast cells

For COc1cc(-n2c(S)nc3ccccc3c2=O)c(Cl)cc1Cl [mfisi-1, 3-(2,4-Dichloro-5-methoxy-phenyl)-2-mercapto-3H-quinazolin-4-one], the “changes in actin cytoskeleton or peripheral ER network” value [1] was “did not result in significant changes”, the “effect on assembly-stimulated rates of GTP hydrolysis for dynamin-1” value (dynamin-1) was “had no effect” and the “effect on mitochondrial morphology in yeast cells” value (wild type yeast cells) was “caused the formation of mitochondrial net-like structures”. For the same compound, the IC50 (wild type yeast cells; Saccharomyces cerevisiae, read-out: IC50, formation of net-like mitochondria) was 10 to 20 µM, the Fragmented (wild type yeast cells; [2]) was “.05” and the Nets (wild type yeast cells; [2]) was “.55”. For the same compound, the Reticular (wild type yeast cells; [2]) was “.40”, the “Mitochondrial Morphology after Drug is Added: Fragmented” value (wild type yeast cells; [3]) was “.05” and the “Mitochondrial Morphology after Drug is Added: Nets” value (wild type yeast cells; [3]) was “.55”. The “Mitochondrial Morphology after Drug is Added: Reticular” value (wild type yeast cells; [3]) was “.40”, the “time after addition until net-like mitochondria form” value (wild type yeast cells; wild type cells, sub-μM concentrations) was no more than 1 min and the “% net-like structures” value (wild type yeast cells; yeast, each at a concentration of 50 μM) was 60%. The “effect on mitochondrial morphology in Δdnm1 cells” value (Δdnm1 cells) was “did not change the net-like morphology”, the “mitochondrial fission events / rate of fission” value (yeast cells) was “no detectable fission events were observed” and the “mitochondrial fusion events / rate of fusion” value (yeast cells) was “fusion events occurred”.
